What was measured:
[1] = system: pan-AKT phosphorylation (pAKT) in Caki-1 cells; assay: Phosphor-AKT bioassay for MET agonist activity in Caki-1 cells; format: cell-based; details: 5 μg/mL
Description: Because it has been reported that MET agonistic antibodies increased hepatocyte proliferation and toxicity, a phosphor-AKT assay may be used to test MET-ADCs for MET agonist activity. Briefly stated, Caki-1 cells may be starved overnight in serum-free medium with 0.1% BSA and then treated with ADCs or naked MET antibodies at 5 μg/mL for the desired durations. Cell lysates may be analyzed for phosphorylation of pan-AKT by MSD ELISA, for example.

HT-29 cells [2] = assay: HT-29 cell-killing assay; format: cell-based, human; details: HT-29 cells
Description: Therefore, the HT-29 cell line may be used to determine if test MET-ADCs can kill MET overexpressing tumor cells in vitro.
Briefly described, 2-3×10^3 cells/well in 100 μL of culture medium may be plated in 96 well plates and incubated overnight at 37° C., 5% CO2. The MET-ADCs, MET antibody(ies), control MMAE or control hIgG4 conjugated to MMAE with cysteine conjugation antibody(ies) may be diluted 1:3 in serum-free culture medium starting from 100 nM (final) in 50 μL as 3× concentrations to the HT-29 cells. At the end of an additional 5-6 days of cell growth at 37° C. in a humidified incubator with 5% CO2, the plates may be equilibrated to room temperature for 30 minutes and 100 μL/well of CellTiter-Glo® reagent (Promega Corp., Fitchburg, Wis.) may then be added to assess cell viability. Cell viability may be determined by measuring luminescence.
Various tumor cell lines and normal human cells may be tested for MET-ADC induced cell killing activity essentially as described above in Example 10 as assessed for MET receptor density. MET cell surface density was determined by indirect immunofluorescence staining of cell surface antigens on cultured cells using QIFIKIT (Dako). […] Following a forty-five minute incubation, cells may be incubated for 1 hour on ice with FITC conjugated antibody diluted 1:50 in FACS buffer. Then cells may be washed and receptor numbers may be determined by indirect immunofluorescence staining of the QIFIKIT beads using a Becton Dickinson LSRII flow cytometer.

[3] = system: HT-29 colon cancer tumor xenografts; assay: HT-29 mouse xenograft model; format: in vivo; details: separate experiment(s), data not shown
Description: Female athymic nude mice age 6- to 7-weeks old are available commercially, including from Harlan Laboratories (Indianapolis, Ind.). The mice are allowed to acclimate for one week and fed ad libitum on a normal low fat (4.5%) diet, which may be continued for the duration of the study. Tumor cells may be purchased from ATCC and may be cultured in cell culture media such as RPMI 1640 (Life Technologies) with L-glutamine, 25 mM HEPES supplemented with 10% FBS and 1 mM Na Pyruvate. Cells may be detached, washed with serum free medium and then resuspended at a final concentration of 50×10^6 cells/mL in serum free RPMI 1640. Tumor cells, approximately 5×10^6, may be injected subcutaneously in the rear flank of subject mice in a 1:1 mixture of serum free growth medium and Matrigel (Becton Dickinson, Bedford, Mass.). Tumor and body weight measurements may be performed twice weekly. Prior to treatment, mice can be randomized based on tumor size using a randomization algorithm. Treatments may be started when the average tumor volume reaches 100 mm^3. […]
MET-ADCs and control hIgG4-MMAE may be prepared in Phosphate Buffered Saline (PBS) prior to dose. Tumor size may be determined by caliper measurements. […] Tumor volume data can be transformed to a log scale to equalize variance across time and treatment groups. Log volume data can be analyzed with two-way repeated measures ANOVA by time and treatment using SAS PROC MIXED software (SAS Institutes Inc, Cary, N.C.). Treatment groups are compared with the specified control group at each time point.

[4] = system: MET expressing tumor cells; details: reported, Strickler et al. 2016; cited from earlier work
HT-29 cells [5] = details: Strickler, J. H., et al., read-out: EC50 in a HT-29 killing assay; cited from earlier work

MET-ADC #6: emibetuzumab conjugated with maleimidocaproyl-valine-citrulline-p-aminobenzoyloxycarbonyl-monomethyl auristatin E (Mal-C-vc-PABC-MMAE)
MET agonist activity (induction of pan-AKT phosphorylation) [1]: significant increased agonist activity
cell killing activity in HT-29 cells (HT-29 cells [2]): less active than MET-ADC #1

Emibetuzumab
inhibition of HT-29 tumor growth [3]: did not inhibit HT-29 tumor growth
MET agonist activity (induction of pan-AKT phosphorylation) [1]: low to no agonist activity
cell killing activity in HT-29 cells (HT-29 cells [2]): no significant cell killing activity

ABBV-399
approximate threshold of MET cell surface molecules for sensitivity [4]: > 100,000
EC50 (HT-29 cells [5]): 9 nM
